# Experimental data taken from PubChem BioAssay (NCI).
# Where “and” joins values, the source holds several entries; their conditions need not be identical. Equal entries are not always repeated.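 These data come from cells grown in 96-well plates and exposed to compound for 48 hours at five concentrations. GI50: concentration for 50% inhibition of growth. TGI: concentration producing complete growth inhibition.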
# What was measured:
# Assay in all cases: DTP human tumour cell line panel, 48 h
# CCRF-CEM leukemia = tested on: CCRF-CEM leukemia
# COLO 205 colon = tested on: COLO 205 colon
# HOP-62 NSCLC = tested on: HOP-62 NSCLC
# KM12 colon = tested on: KM12 colon
# MDA-MB-231 breast = tested on: MDA-MB-231 breast
# NCI-H23 lung = tested on: NCI-H23 lung
# OVCAR-4 ovarian = tested on: OVCAR-4 ovarian
# SF-295 CNS = tested on: SF-295 CNS
# SNB-75 CNS = tested on: SNB-75 CNS
# UACC-62 melanoma = tested on: UACC-62 melanoma
# A498 renal = tested on: A498 renal
Structure (SMILES),TGI (CCRF-CEM leukemia),TGI (COLO 205 colon),TGI (HOP-62 NSCLC),TGI (KM12 colon),TGI (MDA-MB-231 breast),TGI (NCI-H23 lung),TGI (OVCAR-4 ovarian),TGI (SF-295 CNS),TGI (SNB-75 CNS),TGI (UACC-62 melanoma),TGI (A498 renal),GI50 (MDA-MB-231 breast),GI50 (CCRF-CEM leukemia),GI50 (HOP-62 NSCLC),GI50 (KM12 colon),GI50 (NCI-H23 lung),GI50 (SF-295 CNS)
COc1ccc(CNc2nc(NC3CCCCC3)nc(NC3CCCCC3)n2)cc1,> 100 µM,20.9 µM,> 100 µM,3.84 µM,20.1 µM,12.6 µM,> 100 µM,> 100 µM,> 100 µM,50.9 µM,,,,,,,
COc1cc2nc(-c3cccs3)nc(Cl)c2cc1OC,,> 100 µM,> 100 µM,> 100 µM,> 100 µM,> 100 µM,> 100 µM,> 100 µM,> 100 µM,> 100 µM,> 100 µM,,,,,,
CCOP(=O)(OCC)/C(C#N)=C/c1ccc(-c2cc(C(F)(F)F)cc(C(F)(F)F)c2)o1,34.3 µM,27.4 µM,29.1 µM,,26.8 µM,31.1 µM,,11.8 µM,27.9 µM,,24.8 µM,,,,,,
C(=Nc1ccc2c(c1)Cc1ccccc1-2)c1ccccn1,> 100 µM,,> 100 µM,> 100 µM,> 100 µM,> 100 µM,> 100 µM,> 100 µM,> 100 µM,> 100 µM,> 100 µM,,,,,,
Cc1ccc2c(c1)CC1(Cc3cccc(C)c3C1=O)C2=O (stereo not drawn),> 100 µM,> 100 µM,> 100 µM,,> 100 µM,> 100 µM,> 100 µM,> 100 µM,> 100 µM,> 100 µM,> 100 µM,,,,,,
COC(=O)[C@@H](NC(=O)N(Cc1ccccc1)C[C@H](CC(C)C)NC(=O)[C@@H](NC(=O)OC(C)(C)C)C(C)C)C(C)C,,> 100 µM,> 100 µM,> 100 µM,> 100 µM,> 100 µM,> 100 µM,> 100 µM,> 100 µM,> 100 µM,> 100 µM,,,,,,
O=c1cc(NNc2cccc(Cl)c2)[nH]c(=O)[nH]1,68.8 µM,> 100 µM,,> 100 µM,32.1 µM,> 100 µM,> 100 µM,,> 100 µM,> 100 µM,> 100 µM,,,,,,
COc1cccc(-c2nc(-c3cnccn3)n(C/C=C/c3ccccc3)n2)c1,> 10 µM,,,> 10 µM,,> 10 µM,> 10 µM,> 10 µM,> 10 µM,> 10 µM,,,,,,,
O=C1c2c(Br)sc(Br)c2C(=O)C1(O)O,85 µM,50.7 µM,> 100 µM,> 100 µM,,99.6 µM,34.3 µM,> 100 µM,> 100 µM,> 100 µM,> 100 µM,,,,,,
CC(NC(=O)Cc1ccccc1)NC(=O)C(C)C(=O)NCc1ccccc1 (stereo not drawn),> 100 µM,> 100 µM,,> 100 µM,> 100 µM,> 100 µM,> 100 µM,> 100 µM,> 100 µM,> 100 µM,,,,,,,
NCCCN(CCCN)CCc1cn(C(=O)c2ccccc2)cn1,14.8 µM,9.58 µM,23.4 µM,22.2 µM,28.8 µM,36.7 µM,15.3 µM,30.7 µM,17.7 µM,23 µM,,,,,,,
Cc1cc(C)nc(NC(P(=O)(O)O)P(=O)(O)O)n1,,> 100 µM,> 100 µM,> 100 µM,> 100 µM,> 100 µM,,> 100 µM,,> 100 µM,,,,,,,
O=C(CBr)c1ccc2cc(Br)c3ccccc3c2c1,> 100 µM,> 100 µM,> 100 µM,44.1 µM,51.2 µM,35.3 µM,58.9 µM,56.7 µM,72.8 µM,29.8 µM,,,,,,,
CCC1CC(O)c2c(O)c3c(c(O)c2C1O)C(=O)c1cccc(O)c1C3=O (stereo not drawn) (tested in a mixture with another compound),0.085 µM and 0.0441 µM,0.0939 µM and 0.019 µM,0.197 µM and 1.79 µM,0.147 µM and 0.0175 µM,0.164 µM and 0.404 µM,0.0795 µM and 0.186 µM,0.0932 µM and 0.0821 µM,,0.049 µM and 0.0426 µM,0.0396 µM,0.03 µM,0.0118 µM,,,,,
COc1ccc2nc(-c3ccccc3)c(=O)[nH]c2c1,> 100 µM,> 100 µM,> 100 µM,,> 100 µM,> 100 µM,,> 100 µM,> 100 µM,> 100 µM,> 100 µM,,,,,,
CC(=O)NC1C(Sc2ncn(C3OC(CO)C(O)C(O)C3NC(C)=O)n2)OC(CO)C(O)C1O (stereo not drawn),> 100 µM,> 100 µM,> 100 µM,> 100 µM,> 100 µM,> 100 µM,> 100 µM,> 100 µM,,> 100 µM,> 100 µM,,,,,,
CC(=O)c1ccc2c(c1)C(=O)c1sc(C(C)=O)cc1C2=O,,7.94 µM,8.16 µM and 7.25 µM,2.34 µM and 1.48 µM,3.75 µM and 7.75 µM,2.6 µM and 5.35 µM,,1.84 µM and 3 µM,6.27 µM and 4.85 µM,,50 µM,0.521 µM,0.182 µM,2.35 µM,0.313 µM,0.607 µM,1.56 µM
COc1ccc(C2(CC(C)C)CCN(S(=O)(=O)c3ccc(C)cc3)C2)cc1OC (stereo not drawn),64.3 µM,> 100 µM,> 100 µM,68 µM,> 100 µM,> 100 µM,> 100 µM,> 100 µM,> 100 µM,> 100 µM,,,,,,,
CCOc1cc(NC(C)=O)ccc1C(=O)NNS(=O)(=O)c1ccc(NC(C)=O)cc1,> 100 µM,76.2 µM,> 100 µM,> 100 µM,,> 100 µM,> 100 µM,> 100 µM,> 100 µM,> 100 µM,> 100 µM,,,,,,
CCCCC1Cc2cc(O)ccc2-c2nc3cc(O)ccc3n21 (stereo not drawn) (tested in a mixture with another compound),51.8 µM,29.7 µM,30.2 µM,75.1 µM,31.3 µM,72.5 µM,30.8 µM,33.4 µM,,25.5 µM,,,,,,,
O=P1(Cc2ccccc2)N(Cc2ccccc2)[C@@H]2CCCC[C@H]2N1Cc1ccccc1,32.3 µM,18.7 µM,32.2 µM,22.4 µM,24.9 µM,23.2 µM,15.2 µM,21.1 µM,21.1 µM,20.6 µM,,,,,,,
